Measured values from ChEMBL document CHEMBL4495564, “Identification of inhibitors of SARS-Cov2 M-Pro enzymatic activity using a small molecule repurposing screen” (2020).
Values joined by “and” are separate entries in the source; they are usually repeats but may differ in a detail not shown here. Equal values may be shown once. Where a name gives a salt, the structure may show the parent alone.

Columns and labels:
[1] = molecular target: Chymotrypsin (Homo sapiens) (UniProt Q99895+P17538+P40313+Q6GPI1); test: Chymotrypsin inhibition percentage at 10 µM by FRET kind of response from peptide substrate; type: functional
[2] = molecular target: Replicase polyprotein 1ab (Severe acute respiratory syndrome coronavirus 2, UniProt P0DTD1); test: biochemical; type: functional
[3] = molecular target: Replicase polyprotein 1ab (Middle East respiratory syndrome-related coronavirus (isolate UnitedKingdom/H123990006/2012) (Betacoronavirus England 1) (Humancoronavirus EMC), UniProt K9N7C7); test: biochemical; type: functional
[4] = molecular target: Replicase polyprotein 1ab (Middle East respiratory syndrome-related coronavirus (isolate UnitedKingdom/H123990006/2012) (Betacoronavirus England 1) (Humancoronavirus EMC)) (UniProt K9N7C7); conditions: at 10 µM

Replicase polyprotein 1ab (Middle East respiratory syndrome-related coronavirus (isolate UnitedKingdom/H123990006/2012) (Betacoronavirus England 1) (Humancoronavirus EMC), UniProt K9N7C7), sequence (K9N7C7 3248-3553 limits assumed): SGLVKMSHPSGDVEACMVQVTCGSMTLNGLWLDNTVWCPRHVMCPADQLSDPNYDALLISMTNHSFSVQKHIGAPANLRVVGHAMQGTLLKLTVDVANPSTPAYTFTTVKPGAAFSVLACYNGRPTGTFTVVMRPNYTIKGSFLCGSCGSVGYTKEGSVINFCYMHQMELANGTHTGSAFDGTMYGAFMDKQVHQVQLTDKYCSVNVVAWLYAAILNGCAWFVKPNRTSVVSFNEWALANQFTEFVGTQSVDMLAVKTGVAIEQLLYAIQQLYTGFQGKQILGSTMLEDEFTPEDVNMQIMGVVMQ

Compound	inhibition [1]	IC50 [2] [µM]	IC50 [3] [µM]	inhibition [4]	IC50 ([3]; tested as the Zn salt or complex) [µM]
Nc1nc(S)c2ncn(C3OC(CO)C(O)C3O)c2n1 (stereo not drawn)	7.56%	1.08	–	–	–
MERBROMIN	–	0.24	> 10	–	–
C/N=c1/nc(-c2ccccc2)n(-c2ccccc2)s1	–	0.98	> 10	44%	–
CCc1ccc(/C=C/C(=O)Nc2ccc(C(C)=O)cc2)o1	–	4.95	–	–	–
ACRIFLAVINE HYDROCHLORIDE	–	1.93	10	–	–
C[C@@](Cc1ccc(O)c(O)c1)(NN)C(=O)O [CARBIDOPA ANHYDROUS]	–	3.55	> 10	0%	–
C[C@@H]1O[C@@H](O[C@@H]2[C@@H](O)[C@H](OCCc3ccc(O)c(O)c3)O[C@H](CO)[C@H]2OC(=O)/C=C/c2ccc(O)c(O)c2)[C@H](O)[C@H](O)[C@H]1O [ACETOSIDE]	–	4.54	–	–	–
S=C(S)N1CCCC1 [PYRROLIDINE DITHIOCARBAMIC ACID, AMMONIUM SALT]	–	0.21	> 10	42%	–
CC(CN1CC(=O)NC(=O)C1)N1CC(=O)NC(=O)C1 (stereo not drawn) [RAZOXANE]	-0.92%	3.19	> 10	7%	–
O=C1C=Cc2cc(Br)ccc2C1=O	8.47%	0.16	> 10	9% and 0%	–
O=C(O)[C@@H](S)[C@@H](S)C(=O)O	–	1.72	> 10	0%	–
C[n+]1c2cc(N)ccc2cc2ccc(N)cc21 [EUFLAVINE]	–	4.98	–	–	–
CCOC(=O)c1c(N)sc(-c2ccccc2)c1C	5.82%	3.19	–	–	–
Sc1nnc(Nc2ccccc2)s1	4.67%	0.39	–	–	–
CISPLATIN	–	3.82	–	–	–
Sc1nnnn1-c1ccccc1	4.48%	2.36	–	–	–
Cc1ccc(S(=O)(=O)N[C@@H](Cc2ccccc2)C(=O)CCl)cc1 [TPCK]	39.6%	1.37	–	–	–
Nc1ccc2cc3ccc(N)cc3nc2c1 [PROFLAVINE]	16.3%	0.36	> 10	–	–
CC(C)c1cc(CNc2nc(Nc3cc(C4CC4)[nH]n3)cc(N3CCN(C)CC3)n2)on1 [XL-228]	–	1.49	> 10	9%	–
Cc1ccc(-n2sc(=O)n(Cc3ccc(F)cc3)c2=O)cc1	24.5%	0.23	> 10	35%	–
C[C@@H]1O[C@@H](Oc2c(-c3cc(O)c(O)c(O)c3)oc3cc(O)cc(O)c3c2=O)[C@@H](O)[C@H](O)[C@H]1O	–	3.66	–	–	–
O=C1C(Cl)=C(Cl)C(=O)C(Cl)=C1Cl [CHLORANIL]	10.1%	< 0.02	–	–	–
[O-][n+]1ccccc1S [PYRITHIONE]	–	0.05	–	–	–
COc1cccc2c1C(=O)c1c(O)c3c(c(O)c1C2=O)C[C@@](O)(/C(CO)=N/NC(=O)CCCCCN1C(=O)C=CC1=O)C[C@@H]3O[C@H]1C[C@H](N)[C@H](O)[C@H](C)O1 [ALDOXORUBICIN]	–	0.58	> 10	1%	–

Compound	inhibition [1]	IC50 [2] [µM]	IC50 [3] [µM]	inhibition [4]	IC50 ([3]; tested as the Zn salt or complex) [µM]
[O-][n+]1ccccc1S [PYRITHIONE ZINC]	–	2.46	–	–	> 10
Oc1cc(CNC(=S)/C=C/c2cc(O)c(O)c(Br)c2)cc(O)c1O	–	0.48	> 10	20%	–
CC(C)(C)OC(=O)NCCc1nnc(S(=O)(=O)Cc2ccc(Cl)cc2Cl)o1	103%	4.22	–	–	–
O=c1c(O)cccc2cc(O)c(O)c(O)c12 [PURPUROGALLIN]	9.33%	4.58	–	–	–
CN1CCN(C2=C(Cl)C(=O)N(c3ccc(Cl)c(Cl)c3)C2=O)CC1	9.67%	< 1.23	–	–	–
CN1CCN(C(=O)c2ccc(-c3ccc4c(C=O)c(O)ccc4c3)s2)CC1	9.67%	1.33	–	–	–
C/C=C1\C(OC2OC(CO)C(O)C(O)C2O)OC=C(C(=O)OC)C1CC(=O)OCCc1ccc(O)c(O)c1 (stereo not drawn)	–	3.38	> 10	0%	–
PHENYLMERCURIC ACETATE	–	0.01	> 10	–	–
C=C1C(=O)[C@]23[C@H](O)[C@H]1CC[C@@H]2[C@@]12CO[C@]3(O)C[C@@H]1C(C)(C)CC[C@@H]2O	–	2.57	–	–	–
O=C(O)c1cc(O)c2c(c1)[C@H]([C@H]1c3cc(C(=O)O)cc(O)c3C(=O)c3c(O[C@@H]4O[C@H](CO)[C@@H](O)[C@H](O)[C@H]4O)cccc31)c1cccc(O[C@@H]3O[C@H](CO)[C@@H](O)[C@H](O)[C@H]3O)c1C2=O [Sennoside A]	2.66%	–	> 10	42%	–
AUROTHIOGLUCOSE	–	1.74	10	–	–
CCOc1cc(C(Nc2cc(C)ccn2)c2ccc3cccnc3c2O)ccc1OC (stereo not drawn)	13.3%	< 0.27	–	–	–
Cc1ccccc1N(C)C(=O)c1ccc([S+]([O-])c2nccs2)c([N+](=O)[O-])c1 (stereo not drawn)	0.13%	–	> 10	7%	–
CC(C)Nc1cccnc1N1CCN(C(=O)c2cc3cc(NS(C)(=O)=O)ccc3[nH]2)CC1 [DELAVIRDINE MESYLATE]	9.13%	3.99	> 10	34%	–
O=C(/C=C/c1ccc(O)c2c1[C@@H](C(=O)O[C@H](Cc1ccc(O)c(O)c1)C(=O)O)[C@H](c1ccc(O)c(O)c1)O2)O[C@H](Cc1ccc(O)c(O)c1)C(=O)O	–	3.42	–	–	–
Cc1c(-c2cnccn2)ssc1=S [OLTIPRAZ]	9.89%	0.62	> 10	10% and 0%	–
CC(C)c1ccc2oc3nc(N)c(C(=O)O)cc3c(=O)c2c1 [AMLEXANOX]	4.03%	–	> 10	0%	–
NC(CO)C(=O)NNCc1ccc(O)c(O)c1O (stereo not drawn) [BENSERAZIDE HYDROCHLORIDE]	0.39%	–	> 10	9%	–
O=c1sn(-c2cccc3ccccc23)c(=O)n1Cc1ccccc1 [TIDEGLUSIB]	30.7%	–	> 10	22% and 0%	–
Cc1c(OCC(F)(F)F)ccnc1C[S+]([O-])c1nc2ccccc2[nH]1 (stereo not drawn) [LANSOPRAZOLE]	6.43% and 5.66%	0.39	> 10	47%	–
O=C(O[C@@H]1Cc2c(O)cc(O)cc2O[C@@H]1c1cc(O)c(O)c(O)c1)c1cc(O)c(O)c(O)c1 [EPIGALOCATECHIN GALLATE]	-0.5%	–	> 10	10% and 16%	–
COc1nc2ccc(Br)cc2cc1[C@@H](c1ccccc1)[C@@](O)(CCN(C)C)c1cccc2ccccc12 [BEDAQUILINE]	–	4.36	–	–	–
Cc1ccc(S(=O)(=O)/C=C/C#N)cc1	–	0.82	> 10	17%	–
